Species on record: Rattus norvegicus
Experiment: Open TG-GATES - Regimen: Single
Assay type: toxicity, organism-based, Sprague-Dawley
Set-up: regimen Single, gender Male, age 6 weeks
Conditions: in vivo, ip, 120 mg/kg, route intraperitoneal injection, dose level Middle; for APTT / Bas / Eos / Fbg / Hb / Ht / Lym / MCH / MCHC / MCV / Mono / Neu / PT / Plat / RBC / Ret / WBC: tissue Blood; for KIDNEY_L / KIDNEY_R / KIDNEY_TOTAL: tissue Kidney; for LIVER: tissue Liver; for A/G / ALP / ALT / AST / BUN / CRE / Ca / Cl / DBIL / GLC / IP / K / LDH / Na / PL / RALB / TBIL / TC / TG / TP / gamma-GTP: tissue Plasma

Q: How did the TERMINAL_BW (3 h) turn out when `CC(C)=CC(=O)C=C(C)C` [PHORONE] was run?
A: 223.2 g

Q: What about the APTT (3 h) of the same molecule?
A: 16.6 s

Q: What about the Bas (3 h) of the same molecule?
A: 0%

Q: And the Eos (3 h)?
A: 0.8%

Q: And the Fbg (3 h)?
A: 219.8 mg/dL

Q: And the Hb (3 h)?
A: 13.8 g/dL

Q: What about the Ht (3 h) of the same molecule?
A: 41%

Q: What about the Lym (3 h) of the same molecule?
A: 74.4%

Q: What about the MCH (3 h) of the same molecule?
A: 21.7 pg

Q: And the MCHC (3 h)?
A: 33.5%

Q: And the MCV (3 h)?
A: 64.6 fL

Q: And the Mono (3 h)?
A: 8.4%

Q: And the Neu (3 h)?
A: 16.2%

Q: And the PT (3 h)?
A: 12.2 s

Q: What about the Plat (3 h) of the same molecule?
A: 124.2 x10_4/uL

Q: And the RBC (3 h)?
A: 635.4 x10_4/ul

Q: What about the Ret (3 h) of the same molecule?
A: 8.8%

Q: And the WBC (3 h)?
A: 65.2 x10_2/uL

Q: And the KIDNEY_L (3 h)?
A: 1 g

Q: And the KIDNEY_R (3 h)?
A: 1 g

Q: And the KIDNEY_TOTAL (3 h)?
A: 2 g

Q: What about the LIVER (3 h) of the same molecule?
A: 10.2 g

Q: And the A/G (3 h)?
A: 2.2

Q: And the ALP (3 h)?
A: 897.8 IU/L

Q: And the ALT (3 h)?
A: 34.6 IU/L

Q: And the AST (3 h)?
A: 76.2 IU/L

Q: What about the BUN (3 h) of the same molecule?
A: 15.2 mg/dL

Q: And the CRE (3 h)?
A: 0.6 mg/dL

Q: What about the Ca (3 h) of the same molecule?
A: 11.2 mg/dL

Q: And the Cl (3 h)?
A: 103 meq/L

Q: What about the DBIL (3 h) of the same molecule?
A: 0.038 mg/dL

Q: And the GLC (3 h)?
A: 213.4 mg/dL

Q: What about the IP (3 h) of the same molecule?
A: 10.1 mg/dL

Q: And the K (3 h)?
A: 5.1 meq/L

Q: And the LDH (3 h)?
A: 79.8 IU/L

Q: And the Na (3 h)?
A: 137.2 meq/L

Q: And the PL (3 h)?
A: 132.6 mg/dL

Q: And the RALB (3 h)?
A: 3.6 g/dL

Q: And the TBIL (3 h)?
A: 0.6 mg/dL

Q: What about the TC (3 h) of the same molecule?
A: 79 mg/dL

Q: And the TG (3 h)?
A: 50.8 mg/dL

Q: And the TP (3 h)?
A: 5.3 g/dL

Q: And the gamma-GTP (3 h)?
A: 1.2 IU/L

Q: What about the TERMINAL_BW (6 h) of the same molecule?
A: 221.7 g

Q: And the APTT (6 h)?
A: 17.1 s

Q: What about the Bas (6 h) of the same molecule?
A: 0%

Q: And the Eos (6 h)?
A: 1%

Q: And the Fbg (6 h)?
A: 220.6 mg/dL

Q: And the Hb (6 h)?
A: 13.7 g/dL

Q: And the Ht (6 h)?
A: 41.3%

Q: And the Lym (6 h)?
A: 75.6%

Q: What about the MCH (6 h) of the same molecule?
A: 21.7 pg

Q: And the MCHC (6 h)?
A: 33.1%

Q: And the MCV (6 h)?
A: 65.4 fL

Q: What about the Mono (6 h) of the same molecule?
A: 4.4%

Q: What about the Neu (6 h) of the same molecule?
A: 19.2%

Q: What about the PT (6 h) of the same molecule?
A: 12.2 s

Q: What about the Plat (6 h) of the same molecule?
A: 114 x10_4/uL

Q: What about the RBC (6 h) of the same molecule?
A: 633.2 x10_4/ul

Q: What about the Ret (6 h) of the same molecule?
A: 8.5%

Q: What about the WBC (6 h) of the same molecule?
A: 102.3 x10_2/uL

Q: And the KIDNEY_L (6 h)?
A: 1 g

Q: What about the KIDNEY_R (6 h) of the same molecule?
A: 1 g

Q: And the KIDNEY_TOTAL (6 h)?
A: 2 g

Q: What about the LIVER (6 h) of the same molecule?
A: 9.9 g

Q: What about the A/G (6 h) of the same molecule?
A: 1.9

Q: What about the ALP (6 h) of the same molecule?
A: 687.6 IU/L

Q: What about the ALT (6 h) of the same molecule?
A: 34.4 IU/L

Q: And the AST (6 h)?
A: 71 IU/L

Q: What about the BUN (6 h) of the same molecule?
A: 15 mg/dL

Q: What about the CRE (6 h) of the same molecule?
A: 0.4 mg/dL

Q: What about the Ca (6 h) of the same molecule?
A: 10.7 mg/dL

Q: What about the Cl (6 h) of the same molecule?
A: 104.2 meq/L

Q: And the DBIL (6 h)?
A: 0.032 mg/dL

Q: And the GLC (6 h)?
A: 194.4 mg/dL

Q: What about the IP (6 h) of the same molecule?
A: 9.5 mg/dL

Q: And the K (6 h)?
A: 4.7 meq/L

Q: What about the LDH (6 h) of the same molecule?
A: 81.6 IU/L

Q: And the Na (6 h)?
A: 138 meq/L

Q: What about the PL (6 h) of the same molecule?
A: 130.6 mg/dL

Q: And the RALB (6 h)?
A: 3.6 g/dL

Q: What about the TBIL (6 h) of the same molecule?
A: 0.5 mg/dL

Q: And the TC (6 h)?
A: 80 mg/dL

Q: What about the TG (6 h) of the same molecule?
A: 29 mg/dL

Q: And the TP (6 h)?
A: 5.5 g/dL

Q: What about the gamma-GTP (6 h) of the same molecule?
A: 2 IU/L

Q: And the TERMINAL_BW (9 h)?
A: 216.1 g

Q: And the APTT (9 h)?
A: 16.6 s

Q: What about the Bas (9 h) of the same molecule?
A: 0%

Q: What about the Eos (9 h) of the same molecule?
A: 0.8%

Q: And the Fbg (9 h)?
A: 229.2 mg/dL

Q: And the Hb (9 h)?
A: 13.4 g/dL

Q: What about the Ht (9 h) of the same molecule?
A: 40.4%

Q: What about the Lym (9 h) of the same molecule?
A: 72.6%

Q: And the MCH (9 h)?
A: 21.7 pg

Q: What about the MCHC (9 h) of the same molecule?
A: 33.1%

Q: What about the MCV (9 h) of the same molecule?
A: 65.5 fL

Q: What about the Mono (9 h) of the same molecule?
A: 6.6%

Q: And the Neu (9 h)?
A: 20%

Q: What about the PT (9 h) of the same molecule?
A: 12.1 s

Q: And the Plat (9 h)?
A: 113.6 x10_4/uL

Q: And the RBC (9 h)?
A: 617.2 x10_4/ul

Q: And the Ret (9 h)?
A: 8.9%

Q: What about the WBC (9 h) of the same molecule?
A: 90 x10_2/uL

Q: What about the KIDNEY_L (9 h) of the same molecule?
A: 1 g

Q: And the KIDNEY_R (9 h)?
A: 1 g

Q: And the KIDNEY_TOTAL (9 h)?
A: 2 g

Q: What about the LIVER (9 h) of the same molecule?
A: 8.9 g

Q: And the A/G (9 h)?
A: 2.2

Q: And the ALP (9 h)?
A: 717.4 IU/L

Q: What about the ALT (9 h) of the same molecule?
A: 31 IU/L

Q: And the AST (9 h)?
A: 66.8 IU/L

Q: What about the BUN (9 h) of the same molecule?
A: 11.2 mg/dL

Q: What about the CRE (9 h) of the same molecule?
A: 0.5 mg/dL

Q: And the Ca (9 h)?
A: 10.7 mg/dL

Q: And the Cl (9 h)?
A: 106.2 meq/L

Q: What about the DBIL (9 h) of the same molecule?
A: 0.058 mg/dL

Q: What about the GLC (9 h) of the same molecule?
A: 202.6 mg/dL

Q: What about the IP (9 h) of the same molecule?
A: 10 mg/dL

Q: And the K (9 h)?
A: 4.7 meq/L

Q: What about the LDH (9 h) of the same molecule?
A: 89.8 IU/L

Q: And the Na (9 h)?
A: 138.4 meq/L

Q: What about the PL (9 h) of the same molecule?
A: 128 mg/dL

Q: What about the RALB (9 h) of the same molecule?
A: 3.7 g/dL

Q: And the TBIL (9 h)?
A: 0.4 mg/dL

Q: What about the TC (9 h) of the same molecule?
A: 74.2 mg/dL

Q: And the TG (9 h)?
A: 43.8 mg/dL

Q: And the TP (9 h)?
A: 5.4 g/dL

Q: And the gamma-GTP (9 h)?
A: 1.6 IU/L

Q: And the TERMINAL_BW (24 h)?
A: 229.2 g

Q: And the APTT (24 h)?
A: 16.9 s

Q: And the Bas (24 h)?
A: 0%

Q: And the Eos (24 h)?
A: 0.8%

Q: And the Fbg (24 h)?
A: 244 mg/dL

Q: What about the Hb (24 h) of the same molecule?
A: 12.9 g/dL

Q: And the Ht (24 h)?
A: 39.2%

Q: What about the Lym (24 h) of the same molecule?
A: 75.4%

Q: What about the MCH (24 h) of the same molecule?
A: 21.3 pg

Q: And the MCHC (24 h)?
A: 32.9%

Q: And the MCV (24 h)?
A: 64.7 fL

Q: And the Mono (24 h)?
A: 6.8%

Q: What about the Neu (24 h) of the same molecule?
A: 17.2%

Q: What about the PT (24 h) of the same molecule?
A: 11.7 s

Q: And the Plat (24 h)?
A: 121.5 x10_4/uL

Q: And the RBC (24 h)?
A: 606.2 x10_4/ul

Q: And the Ret (24 h)?
A: 8.1%

Q: What about the WBC (24 h) of the same molecule?
A: 94.9 x10_2/uL

Q: And the KIDNEY_L (24 h)?
A: 1.1 g

Q: What about the KIDNEY_R (24 h) of the same molecule?
A: 1.1 g

Q: What about the KIDNEY_TOTAL (24 h) of the same molecule?
A: 2.2 g

Q: And the LIVER (24 h)?
A: 11.9 g

Q: And the A/G (24 h)?
A: 2.1

Q: And the ALP (24 h)?
A: 860.6 IU/L

Q: What about the ALT (24 h) of the same molecule?
A: 34.4 IU/L

Q: What about the AST (24 h) of the same molecule?
A: 58.2 IU/L

Q: And the BUN (24 h)?
A: 15.8 mg/dL

Q: And the CRE (24 h)?
A: 0.5 mg/dL

Q: What about the Ca (24 h) of the same molecule?
A: 10.9 mg/dL

Q: What about the Cl (24 h) of the same molecule?
A: 103.6 meq/L

Q: And the DBIL (24 h)?
A: 0.03 mg/dL

Q: What about the GLC (24 h) of the same molecule?
A: 194.8 mg/dL

Q: What about the IP (24 h) of the same molecule?
A: 7.7 mg/dL

Q: What about the K (24 h) of the same molecule?
A: 4.6 meq/L

Q: And the LDH (24 h)?
A: 176.4 IU/L

Q: What about the Na (24 h) of the same molecule?
A: 139.2 meq/L

Q: What about the PL (24 h) of the same molecule?
A: 148 mg/dL

Q: And the RALB (24 h)?
A: 3.7 g/dL

Q: And the TBIL (24 h)?
A: 0.4 mg/dL

Q: And the TC (24 h)?
A: 77.2 mg/dL

Q: And the TG (24 h)?
A: 106.2 mg/dL

Q: And the TP (24 h)?
A: 5.6 g/dL

Q: And the gamma-GTP (24 h)?
A: 0.6 IU/L

Source: ChEMBL document CHEMBL3885861, “Open TG-GATES”
